Our source for the IC90 values is patent US20230203043A1, “NOVEL IMIDAZOPYRAZINE DERIVATIVES” (Hoffmann-La Roche Inc., priority 2020, published 2023).

Each structure is given as a SMILES string. Counter-ions that a name gives are not always drawn.

In the first assay the test system is Acinetobacter baumannii ATCC17961. The experiment in a line: Antimicrobial susceptibility testing: 90% growth inhibitory concentration (IC90) determination in Iso-Sensitest broth, OD600 growth. The format is cell-based. The following applies: Acinetobacter baumannii, ATCC17961, 16 h, read-out: A. baumannii ATCC 17961 IC90 (uM), strain ATCC 17961, OD600 growth over 16 h. An outline of the steps:
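Growth inhibition is calculated during the logarithmic phase from OD600 readings taken every 20 minutes across 16 h at 35±2° C. Bacteria at ~5×10^(5) CFU/ml face twofold dilution series (e.g. 50 to 0.097 μM final).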
As usually defined, the IC90 is the point of the concentration-response curve where the effect stands at 90%. For the compound `NC1CCN(C(=O)N2CCN(C(=O)c3ccc(Nc4nccn5c(-c6c[nH]nc6C(F)(F)F)cnc45)cc3Cl)CC2)CC1` [Example 285, [4-(4-aminopiperidine-1-carbonyl)piperazin-1-yl]-[2-chloro-4-[[3-[3-(trifluoromethyl)-1H-pyrazol-4-yl]imidazo[1,2-a]pyrazin-8-yl]amino]phenyl] methanone formate], the IC90 was 0.185 µM.

With `CCc1cc(Nc2nccn3c(-c4cn(CC#N)nc4C(F)(F)F)cnc23)ccc1C(=O)NCC(=O)N[C@@H]1CCNC1` [Example 757, 4-[[3-[1-(cyanomethyl)-3-(trifluoromethyl)pyrazol-4-yl]imidazo[1,2-a]pyrazin-8-yl]amino]-2-ethyl-N-[2-oxo-2-[[(3R)-pyrrolidin-3-yl]amino]ethyl]benzamide formate], the IC90 is 0.689 µM.

In the case of `CCc1cc(Nc2nccn3c(-c4c[nH]nc4C(F)(F)F)cnc23)ccc1C(=O)NCCNC(=O)CCN` [Example 220, N-[2-(3-aminopropanoylamino)ethyl]-2-ethyl-4-[[3-[3-(trifluoromethyl)-1H-pyrazol-4-yl]imidazo[1,2-a]pyrazin-8-yl]amino]benzamide formate], the IC90 was found to be 0.51 µM.

The assay is the same for the next values; noted with them: Acinetobacter baumannii, ATCC17961, 16 h, strain ATCC 17961, OD600 growth over 16 h, read-out: A. baumannii ATCC 17961 IC90.
In the case of `Cc1cc(Nc2nccn3c(-c4cn(CC#N)nc4C(F)(F)F)cnc23)ccc1C(=O)NCC(=O)N[C@H]1CCNC1` [Example 780, 4-[[3-[1-(cyanomethyl)-3-(trifluoromethyl)pyrazol-4-yl]imidazo[1,2-a]pyrazin-8-yl]amino]-2-methyl-N-[2-oxo-2-[[(3S)-pyrrolidin-3-yl]amino]ethyl] benzamide formate], the IC90 worked out at 1.06 µM.

Take `CCc1cc(Nc2nccn3c(-c4c[nH]nc4C(F)(F)F)cnc23)ccc1C(=O)NCCNC(=O)[C@H]1C[C@@H](N)C1` [Example 740, N-(2-((1s,3s)-3-aminocyclobutane-1-carboxamido)ethyl)-2-ethyl-4-((3-(3-(trifluoromethyl)-1H-pyrazol-4-yl)imidazo[1,2-a]pyrazin-8-yl)amino)benzamide]: the IC90 was found to be 0.529 µM.

For the compound `CCc1cc(Nc2nccn3c(-c4cn(CC#N)nc4C(F)(F)F)cnc23)ccc1C(=O)NCCCNC(=O)[C@H]1CC[C@@H](N)C1` [Example 484, N-(3-((1S,3R)-3-aminocyclopentane-1-carboxamido)propyl)-4-((3-(1-(cyanomethyl)-3-(trifluoromethyl)-1H-pyrazol-4-yl)imidazo[1,2-a]pyrazin-8-yl)amino)-2-ethylbenzamide formate], the IC90 turned out to be 0.154 µM.

For the compound `Cc1cc(Nc2nccn3c(-c4cn(CC(F)F)nc4C(F)(F)F)cnc23)cc(F)c1C(=O)N[C@H](C)CNC(=O)[C@@H]1C[C@@H](O)CN1` [Example 744, (2S,4R)-N-((R)-2-(4-((3-(1-(2,2-difluoroethyl)-3-(trifluoromethyl)-1H-pyrazol-4-yl)imidazo[1,2-a]pyrazin-8-yl)amino)-2-fluoro-6-methylbenzamido)propyl)-4-hydroxypyrrolidine-2-carboxamide], the IC90 was 0.557 µM.

Regarding `O=C(CNC(=O)c1ccc(Nc2nccn3c(-c4c[nH]nc4C(F)(F)F)cnc23)cc1Cl)N[C@@H]1CCNC1` [Example 139, 2-chloro-N-[2-oxo-2-[[(3R)-pyrrolidin-3-yl]amino]ethyl]-4-[[3-[3-(trifluoromethyl)-1H-pyrazol-4-yl]imidazo[1,2-a]pyrazin-8-yl]amino]benzamide], the concentration for an effect of 90% (IC90) amounted to 2.8 µM.

As for `C#CCn1cc(-c2cnc3c(Nc4ccc(C(=O)N5CCN(C(=O)[C@H](C)N)CC5)c(CC)c4)nccn23)c(C(F)F)n1` [Example 694, (S)-2-amino-1-(4-(4-((3-(3-(difluoromethyl)-1-(prop-2-yn-1-yl)-1H-pyrazol-4-yl)imidazo[1,2-a]pyrazin-8-yl)amino)-2-ethylbenzoyl)piperazin-1-yl)propan-1-one], the concentration for an effect of 90% (IC90) is 0.358 µM.

Staying with this assay, now noted: strain ATCC 17961, OD600 growth over 16 h, read-out: A. baumannii ATCC 17961 IC90.
For the compound `C=CCn1cc(-c2cnc3c(Nc4cc(C)c(C(=O)NCCOCCN)c(F)c4)nccn23)c(C(F)(F)F)n1` [Example 51, N-[2-(2-aminoethoxy)ethyl]-2-fluoro-6-methyl-4-[[3-[1-prop-2-enyl-3-(trifluoromethyl)pyrazol-4-yl]imidazo[1,2-a]pyrazin-8-yl]amino] benzamide], the IC90 was 0.13 µM.
